Key:
[1] = tested on: plants; assay: Herbicidal potency of clethodim enantiomer versus racemate; type: in vivo; conditions: used in a herbicidal composition; no test data given
[2] = Solubility / miscibility in water; type: physicochemical
[3] = Storage stability of CPHA free base and CPHA-HCl solutions (decomposition / GC purity drop); type: physicochemical
Method: Neither preparation nor applications of solvent-free CPHA free base or aqueous CPHA solution has been reported in the prior art. […] For example, a commercial 40% CPHA-HCl solution decomposes by 52% after 23 days at 35° C., whereas, a 85% CPHA aqueous solution has only 1.1% purity drop after 78 days at 40° C.
The GC method set up for CPHA purity, impurity profile, and hydroxylamine content determination is described as follows. • Instrument: HP 6890 series GC system. • Column: HP-1 capillary column, 10 m×0.53 mm×[…]. • Detector: FID, 250° C. • Inlet: 200° C. • Oven Temperature program: • Initial temperature: 40° C. • Initial time: 2 minutes. • Ramps: 10° C./min, 65° C., 0 minutes • 20° C./min, 250° C., 3 minutes.
Weigh about 2.00 g of sample in a vial containing 2.20 g of cyclohexanone; Add 50% sodium hydroxide if necessary to bring pH to above 9. Stir the mixture in the capped vial at 50° C. for 2 hours. After cooling, add 8.0 g of dichloromethane and shake for one minute. Settle the mixture for 5 minutes. Take the organic phase for gas chromatographic (GC) analysis. CPHA purity and impurity profile are directly based on GC area. Hydroxylamine content is calculated based on the integration area of cyclohexanone oxime (cyclohexanoxime) peak and O-(chloro-2-propenyl)cyclohexanoxime peak.

[4] = Solubility in organic solvents; type: physicochemical; conditions: ethers, alcohol, toluene, chlorinated alkanes
Source text: For example, to make a O-(3-chloro-2-propenyl)hydroxylamine solution in dichloromethane, CPHA is simply mixed with dichloromethane. No exotherm was observed.

Q: For CCSC(C)CC1CC(=O)C(/C(CC)=N/OC/C=C/Cl)=C(O)C1 (single isomer, unassigned; (-)) [(−) clethodim], which “potency compared to the racemic form or (+) clethodim” value [1] is on record?
A: The value was “increased potency”.

Q: With NOCC=CCl [CPHA, O-(3-Chloro-2-propenyl)hydroxylamine] as the compound, how does the miscibility with water ([2]; room temperature) read?
A: The miscibility with water was “miscible with water”.

Q: And the purity drop ([3]; 85% CPHA aqueous solution, after 78 days at 40° C.)?
A: The purity drop was 1.1%.

Q: What about the “solubility in organic solvents” value [4] of the same compound?
A: Its value is “soluble in many organic solvents”.

Q: Which results are given for Cl.NOCC=CCl [CPHA-HCl, O-(3-chloro-2-propenyl)hydroxylamine hydrochloride, reference compound]?
A: maximum solubility ([2]; commercially available CPHA-HCl solution in water): about 45%; decomposition of solution ([3]; commercial 40% CPHA-HCl solution, after 23 days at 35° C.): 52%

Reference: patent publication US20050085645A1, “O-(3-chloropropenyl) hydroxylamine free base” (priority 2003, published 2005)
